The assay addresses T1, human PD-1 / PD-L1-Ig binding on Jurkat cell line over-expressing human PD-1 (Jurkat-PD-1) (Homo sapiens, UniProt Q15116).
T1 construct: expressed in transfected cells; host or cells: Jurkat
In words: Jurkat-PD-1 Cell Binding High-Content Screening Assay (CBA). It counts as cell-based. Particulars: PE-labeled PD-L1-Ig 20 nM final. In outline: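 Binding of fluorescent PD-L1-Ig (phycoerythrin linked via the Ig tag, 20 nM final) to PD-1-overexpressing Jurkat cells was imaged after a 2 h, 37° C compound pretreatment and 1 hour ligand incubation.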

[1] abbreviates: Jurkat-PD-1 cells, read-out: Jurkat HPD1_PDL1 IC50.
Setting [2] is: Jurkat HPD1_PDL1 IC50, Jurkat-PD-1 cells.

SMILES strings stand for the structures. pIC50: −log10 of the molar value. Where two headings read alike, the source gives them in different places. Where a SMILES comes first, the peptide text is derived from it. Bridges are numbered along the chain shown (N, C = ends). [ ]: non-standard residue; d: D form. The star is where a group is joined. Phe(4-COOH) = N[C@@H](Cc1ccc(C(=O)O)cc1)C(=O)O; Bip = N[C@@H](Cc1ccc(-c2ccccc2)cc1)C(=O)O; Phe(3-OMe) = COc1cccc(C[C@H](N)C(=O)O)c1; Phe(3-Me) = Cc1cccc(C[C@H](N)C(=O)O)c1; Val(3-OH) = CC(C)(O)[C@H](N)C(=O)O; 4Pal = N[C@@H](Cc1ccncc1)C(=O)O; Cha = N[C@@H](CC1CCCCC1)C(=O)O; Cit = NC(=O)NCCC[C@H](N)C(=O)O; Gly(cPr) = N[C@H](C(=O)O)C1CC1; Carboxymethyl = O=C(O)C*; Orn = NCCC[C@H](N)C(=O)O; Dab = NCC[C@H](N)C(=O)O; Abu = CC[C@H](N)C(=O)O; Dap = NC[C@H](N)C(=O)O

T1 sequence (Q15116 25-288): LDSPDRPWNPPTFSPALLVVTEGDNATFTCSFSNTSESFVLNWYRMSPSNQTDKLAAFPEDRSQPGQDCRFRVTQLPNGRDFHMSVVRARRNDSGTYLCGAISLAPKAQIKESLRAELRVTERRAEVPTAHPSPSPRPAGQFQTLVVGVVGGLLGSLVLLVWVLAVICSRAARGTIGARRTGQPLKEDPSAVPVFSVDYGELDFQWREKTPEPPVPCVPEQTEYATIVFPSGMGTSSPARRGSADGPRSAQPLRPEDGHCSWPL

Broadly, the pIC50 is the IC50 on a negative log10 scale, so that one unit is a factor of ten. Turning to `COc1cccc(C[C@@H]2NC(=O)[C@H](CC(=O)O)NC(=O)[C@H](Cc3ccc(O)cc3)NC(=O)[C@H](CC(N)=O)NC(=O)CSC[C@@H](C(=O)N[C@@H](C)C(N)=O)NC(=O)[C@H]([C@@H](C)O)NC(=O)[C@H](C(C)C)NC(=O)[C@H](CC3CCCCC3)NC(=O)[C@H](CCN)NC(=O)[C@@H](CC(C)C)NC(=O)[C@H](CCCN)NC(=O)[C@H](CCC(=O)O)NC(=O)[C@H](Cc3ccc(-c4ccccc4)cc3)NC(=O)[C@H](C(C)C)NC2=O)c1` [Compound 1466] ({CH2CO}-NYD[Phe(3-OMe)]V[Bip]E[Orn][dL][Dab][Cha]VTCA-NH2; thioether N-14), the pIC50 under setting [1] was 7.79.

Regarding `CC[C@H](C)[C@@H]1NC(=O)[C@H](Cc2ccc(-c3ccccc3)cc2)NC(=O)[C@H](C(C)C)NC(=O)[C@H](Cc2c[nH]c3ccccc23)NC(=O)[C@H](CC(=O)O)NC(=O)[C@H](Cc2ccc(O)cc2)NC(=O)[C@H](CN)NC(=O)CSC[C@@H](C(=O)N[C@@H](C)C(N)=O)NC(=O)[C@H]([C@@H](C)O)NC(=O)[C@H](C(C)C)NC(=O)[C@H](CC(C)C)NC(=O)[C@H](CCCNC(=N)N)NC(=O)[C@@H](CC(C)C)NC(=O)[C@H](CCCN)NC1=O` [Compound 1141] ({CH2CO}-[Dap]YDWV[Bip]I[Orn][dL]RLVTCA-NH2; thioether N-14), the pIC50 under setting [1] was 7.51.

Take `Cc1cccc(C[C@@H]2NC(=O)[C@H](CC(=O)O)NC(=O)[C@H](Cc3ccc(OCC(=O)O)cc3)NC(=O)[C@H](Cc3ccc(OCC(=O)O)cc3)NC(=O)CSC[C@@H](C(N)=O)NC(=O)[C@H](CO)NC(=O)[C@H](C(C)C)NC(=O)[C@H](CC(C)C)NC(=O)[C@H](CCN)NC(=O)[C@@H](CC(C)C)NC(=O)[C@H](CCCN)NC(=O)[C@H](C(C)C)NC(=O)[C@H](Cc3ccc(-c4ccccc4)cc3)NC(=O)[C@H](CC(C)C)NC2=O)c1` [Compound 1649] ({CH2CO}-Y(Carboxymethyl)Y(Carboxymethyl)D[Phe(3-Me)]L[Bip]V[Orn][dL][Dab]LVSC-NH2; thioether N-14): the pIC50 under setting [1] was 7.46.

The molecule `CC(C)C[C@H]1NC(=O)[C@H](CCCN)NC(=O)[C@H](CCCNC(N)=O)NC(=O)[C@H](Cc2ccc(-c3ccccc3)cc2)NC(=O)[C@H](C(C)C)NC(=O)[C@H](Cc2c[nH]c3ccccc23)NC(=O)[C@H](CC(=O)O)NC(=O)[C@H](Cc2ccc(C(=O)O)cc2)NC(=O)[C@H](Cc2ccc(OCC(=O)O)cc2)NC(=O)CSC[C@@H](C(=O)N[C@@H](C)C(N)=O)NC(=O)[C@H]([C@@H](C)O)NC(=O)[C@H](C(C)C)NC(=O)[C@H](Cc2ccccc2)NC(=O)[C@H](CCN)NC1=O` [Compound 1664] ({CH2CO}-Y(Carboxymethyl)[Phe(4-COOH)]DWV[Bip][Cit][Orn][dL][Dab]FVTCA-NH2; thioether N-14) gave a negative-log IC50 (pIC50) under setting [2] of 7.44.

Consider `CC[C@H](NC(=O)[C@@H]1CSCC(=O)N[C@@H](Cc2cnc[nH]2)C(=O)N[C@@H](Cc2ccc(OCC(=O)O)cc2)C(=O)N[C@@H](CC(=O)O)C(=O)N[C@@H](Cc2c[nH]c3ccccc23)C(=O)N[C@@H](C(C)C)C(=O)N[C@@H](Cc2ccc(-c3ccccc3)cc2)C(=O)N[C@@H](C(C)C)C(=O)N[C@@H](CCCN)C(=O)N[C@H](CC(C)C)C(=O)N[C@@H](CCN)C(=O)N[C@@H](CC2CCCCC2)C(=O)N[C@@H](C(C)C)C(=O)N[C@@H](CO)C(=O)N1)C(N)=O` [Compound 2564] ({CH2CO}-HY(Carboxymethyl)DWV[Bip]V[Orn][dL][Dab][Cha]VSC[Abu]-NH2; thioether N-14), for which the negative logarithm of the IC50 (pIC50) under setting [1] is 7.73.

For the molecule `CC(C)C[C@H]1NC(=O)[C@H](CCCN)NC(=O)[C@H](C(C)C)NC(=O)[C@H](Cc2ccc(-c3ccccc3)cc2)NC(=O)[C@H](C(C)C)NC(=O)[C@H](Cc2c[nH]c3ccccc23)NC(=O)[C@H](CC(=O)O)NC(=O)[C@H](Cc2ccc(OCc3ccccc3)cc2)NC(=O)[C@H](CN)NC(=O)CSC[C@@H](C(=O)N[C@@H](C)C(N)=O)NC(=O)[C@H]([C@@H](C)O)NC(=O)[C@H](C(C)C)NC(=O)[C@H](CC2CCCCC2)NC(=O)[C@H](CCN)NC1=O` [Compound 1528], the negative logarithm of the IC50 (pIC50) under setting [2] was 7.00.

On to `Cc1cccc(C[C@@H]2NC(=O)[C@H](CC(=O)O)NC(=O)[C@H](Cc3ccc(OCC(=O)O)cc3)NC(=O)[C@H](Cc3ccncc3)NC(=O)CSC[C@@H](C(=O)N[C@@H](CCN)C(N)=O)NC(=O)[C@H](CO)NC(=O)[C@H](C(C)(C)O)NC(=O)[C@H](CC3CCCCC3)NC(=O)[C@H](CCN)NC(=O)[C@@H](CC(C)C)NC(=O)[C@H](CCCN)NC(=O)[C@H](Cc3ccc(OCC(=O)O)cc3)NC(=O)[C@H](Cc3ccc(-c4ccccc4)cc3)NC(=O)[C@H](Cc3ccc(OCC(=O)O)cc3)NC2=O)c1` [Compound 2057] ({CH2CO}-[4Pal]Y(Carboxymethyl)D[Phe(3-Me)]Y(Carboxymethyl)[Bip]Y(Carboxymethyl)[Orn][dL][Dab][Cha][Val(3-OH)]SC[Dab]-NH2; thioether N-14), for which the negative logarithm of the IC50 (pIC50) under setting [1] is 8.44.

As to `CC(C)C[C@@H]1NC(=O)[C@H](CCN)NC(=O)[C@@H](CC(C)C)NC(=O)[C@H](CCN)NC(=O)[C@H](CCCNC(N)=O)NC(=O)[C@H](Cc2ccc(-c3ccccc3)cc2)NC(=O)[C@H](C(C)C)NC(=O)[C@H](Cc2c[nH]c3ccccc23)NC(=O)[C@H](CC(=O)O)NC(=O)[C@H](Cc2ccc(O)cc2)NC(=O)[C@H](CC(N)=O)NC(=O)CSC[C@@H](C(=O)N[C@@H](C)C(N)=O)NC(=O)[C@H]([C@@H](C)O)NC(=O)[C@H](C(C)C)NC1=O` [Compound 1018] ({CH2CO}-NYDWV[Bip][Cit][Dab][dL][Dab]LVTCA-NH2; thioether N-14), the pIC50 under setting [1] was 7.68.

With `CC(C)C[C@H]1NC(=O)[C@H](CCCN)NC(=O)[C@H](C(C)C)NC(=O)[C@H](Cc2ccc(-c3ccccc3)cc2)NC(=O)[C@H](C(C)C)NC(=O)[C@H](Cc2c[nH]c3ccccc23)NC(=O)[C@H](CC(=O)O)NC(=O)[C@H](Cc2ccc(OCC(=O)O)cc2)NC(=O)[C@H](CN)NC(=O)CSC[C@@H](C(=O)N[C@@H](C)C(N)=O)NC(=O)[C@H]([C@@H](C)O)NC(=O)[C@H](C(C)C)NC(=O)[C@H](CC2CCCCC2)NC(=O)[C@H](CCN)NC1=O` [Compound 1312] ({CH2CO}-[Dap]Y(Carboxymethyl)DWV[Bip]V[Orn][dL][Dab][Cha]VTCA-NH2; thioether N-14), under setting [1], the pIC50 is 8.40.

Consider `CC(C)C[C@H]1NC(=O)[C@H](CCCN)NC(=O)[C@H](CCC(=O)O)NC(=O)[C@H](Cc2ccc(-c3ccccc3)cc2)NC(=O)[C@H](C(C)C)NC(=O)[C@H](Cc2c[nH]c3ccccc23)NC(=O)[C@H](CC(=O)O)NC(=O)[C@H](Cc2ccncc2)NC(=O)[C@H](Cc2ccc(OCC(=O)O)cc2)NC(=O)CSC[C@@H](C(=O)N[C@@H](C)C(N)=O)NC(=O)[C@H]([C@@H](C)O)NC(=O)[C@H](C(C)C)NC(=O)[C@H](CC2CCCCC2)NC(=O)[C@H](Cc2c[nH]cn2)NC1=O` [Compound 1605], for which the pIC50 under setting [2] is 7.64.

For the molecule `CC(C)C[C@H]1NC(=O)[C@H](CCCN)NC(=O)[C@H](C(C)C)NC(=O)[C@H](Cc2ccc(-c3ccccc3)cc2)NC(=O)[C@H](C2CC2)NC(=O)[C@H](Cc2c[nH]c3ccccc23)NC(=O)[C@H](CC(=O)O)NC(=O)[C@H](Cc2ccc(OCC(=O)O)cc2)NC(=O)[C@H](CN)NC(=O)CSC[C@@H](C(=O)N[C@@H](C)C(N)=O)NC(=O)[C@H]([C@@H](C)O)NC(=O)[C@H](C(C)C)NC(=O)[C@H](CC2CCCCC2)NC(=O)[C@H](CCN)NC1=O` [Compound 1732] ({CH2CO}-[Dap]Y(Carboxymethyl)DW[Gly(cPr)][Bip]V[Orn][dL][Dab][Cha]VTCA-NH2; thioether N-14), the pIC50 under setting [1] was 7.74.

Turning to `CC(C)C[C@H]1NC(=O)[C@H](CCCN)NC(=O)[C@H](CCCNC(N)=O)NC(=O)[C@H](Cc2ccc(-c3ccccc3)cc2)NC(=O)[C@H](C(C)C)NC(=O)[C@H](Cc2c[nH]c3ccccc23)NC(=O)[C@H](CC(=O)O)NC(=O)[C@H](Cc2ccncc2)NC(=O)[C@H](Cc2ccc(OCC(=O)O)cc2)NC(=O)CSC[C@@H](C(=O)N[C@@H](C)C(N)=O)NC(=O)[C@H]([C@@H](C)O)NC(=O)[C@H](C(C)C)NC(=O)[C@H](CC2CCCCC2)NC(=O)[C@H](CCN)NC1=O` [Compound 1326], the pIC50 under setting [1] is 7.92.

For `COc1cccc(C[C@@H]2NC(=O)[C@H](CC(=O)O)NC(=O)[C@H](Cc3ccc(C(=O)O)cc3)NC(=O)[C@H](Cc3ccc(OCC(=O)O)cc3)NC(=O)CSC[C@@H](C(=O)N[C@@H](C)C(N)=O)NC(=O)[C@H]([C@@H](C)O)NC(=O)[C@H](C(C)C)NC(=O)[C@H](CC3CCCCC3)NC(=O)[C@H](CCN)NC(=O)[C@@H](CC(C)C)NC(=O)[C@H](CCCN)NC(=O)[C@H](CCC(=O)O)NC(=O)[C@H](Cc3ccc(-c4ccccc4)cc3)NC(=O)[C@H](C(C)C)NC2=O)c1` [Compound 1541], the pIC50 under setting [1] is 7.78.

As to `CC(C)C[C@@H]1NC(=O)[C@H](CCN)NC(=O)[C@@H](CC(C)C)NC(=O)[C@H](CCCN)NC(=O)[C@H](CCCNC(=N)N)NC(=O)[C@H](Cc2ccc(-c3ccccc3)cc2)NC(=O)[C@H](C(C)C)NC(=O)[C@H](Cc2c[nH]c3ccccc23)NC(=O)[C@H](CC(=O)O)NC(=O)[C@H](Cc2ccc(O)cc2)NC(=O)[C@H](CC(N)=O)NC(=O)CSC[C@@H](C(=O)N[C@@H](C)C(N)=O)NC(=O)[C@H]([C@@H](C)O)NC(=O)[C@H](C(C)C)NC1=O` [Compound 1005] ({CH2CO}-NYDWV[Bip]R[Orn][dL][Dab]LVTCA-NH2; thioether N-14), under setting [1], the negative logarithm of the IC50 (pIC50) was 7.45.

Regarding `Cc1cccc(C[C@@H]2NC(=O)[C@H](CC(=O)O)NC(=O)[C@H](Cc3ccc(OCC(=O)O)cc3)NC(=O)[C@H](CN)NC(=O)CSC[C@@H](C(=O)N[C@@H](C)C(N)=O)NC(=O)[C@H]([C@@H](C)O)NC(=O)[C@H](C(C)C)NC(=O)[C@H](CC3CCCCC3)NC(=O)[C@H](CCN)NC(=O)[C@@H](CC(C)C)NC(=O)[C@H](CCCN)NC(=O)[C@H](CN)NC(=O)[C@H](Cc3ccc(-c4ccccc4)cc3)NC(=O)[C@H](C(C)C)NC2=O)c1` [Compound 1310] ({CH2CO}-[Dap]Y(Carboxymethyl)D[Phe(3-Me)]V[Bip][Dap][Orn][dL][Dab][Cha]VTCA-NH2; thioether N-14), the negative logarithm of the IC50 (pIC50) under setting [1] was 7.92.

Values taken from patent US20250163104A1, “MACROCYCLIC IMMUNOMODULATORS” (priority 2021, published 2025).
